Results as given in BindingDB's records for doi:10.7270/Q2X065GM (Sanford-Burnham Center for Chemical Genomics, 2008).
pIC50: −log10 of the molar value.

Molecular target: T1, Bcl-2-related protein A1 (Mus musculus, UniProt Q07440)
T1 sequence (Q07440 whole entry): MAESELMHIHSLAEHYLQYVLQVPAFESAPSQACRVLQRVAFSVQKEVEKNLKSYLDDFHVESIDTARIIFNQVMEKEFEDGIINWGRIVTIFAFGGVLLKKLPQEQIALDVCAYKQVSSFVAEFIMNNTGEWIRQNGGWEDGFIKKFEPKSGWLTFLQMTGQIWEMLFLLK
Assay: Bfl-1 binding inhibitors, SAR follow-up, biochemical, fluorescence polarization (AID 1070)

Row | pIC50 | SMILES
1 | 4.90 | COCC=Nc1c(Cl)c(O)n(-c2ccc(Cl)c(Cl)c2)c1O [3-chloranyl-1-(3,4-dichlorophenyl)-4-(2-methoxyethylamino)pyrrole-2,5-dione]
2 | 5.77 | Cc1ccc(N=C2C(=O)N(c3ccc(C)cc3)C(=O)C2Cl)cc1 (configuration not stated) [3-chloranyl-1-(4-methylphenyl)-4-[(4-methylphenyl)amino]pyrrole-2,5-dione]
